Source: article PMC6470589, “Contribution of Molecular Structure to Self-Assembling and Biological Properties of Bifunctional Lipid-Like 4-(N-Alkylpyridinium)-1,4-Dihydropyridines” (Pharmaceutics, 2019)
Several values for one entry are separate records, joined by “and”; a condition that tells them apart may be missing. Equal values may be shown once. Entries after “also recorded” stand apart in the source; their conditions may differ.

Tests used:
[1] = test system: Bacillus subtilis subsp. spizizenii; experiment: Toxicity screen, serial dilution-spot test; assay type: cell-based; conditions: gram positive; 24 h exposure in DI water, 28 °C; 0.0001 = no colonies at 0.001 mM;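 further: last dilution that did not fully inhibit growth with colonies still present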
Protocol: (§1) An estimation of the toxicity of 4-(N-alkylpyridinium)-1,4-DHP derivatives 3, 6, 7, and 9–11 was performed using six prokaryotic (bacteria) and one eukaryotic (yeast) microorganism species according to the procedure elaborated by Suppi et al.. The microorganisms used in the study and their origin were: Bacillus subtilis subsp. spizizenii (ATCC® 6633™*, Microbiologics®, St Cloud, MN, USA), Escherichia coli (ATCC® 8739, Microbiologics®), Klebsiella pneumoniae (Latvian Microorganisms strain collection, LMKK, strain number 535, Riga, Latvia), Micrococcus luteus (LMKK, No. 25), Pseudomonas aeruginosa (NCTC 12924, Biosciences Ltd., Dublin, Ireland), Proteus mirabilis (LMKK, No 590), and Saccharomyces cerevisiae, CEN.PK2 strain [32].
(§2) Bacteria and yeast cultures were cultivated until their exponential growth phase (optical density max 1); then, 100 µL of cell suspension was taken, washed in deionised (DI) water, and added to serially diluted samples of corresponding 4-(N-alkylpyridinium)-1,4-DHPs in DI water. All 1,4-DHPs were tested in five serially diluted concentrations (10 mM, 1 mM, 0.1 mM, 0.01 mM, and 0.001 mM). Test organisms were exposed to 1,4-DHP derivatives in DI water on 96-well microplates (Corning, Corning, NY, USA) at 28 °C for 24 h without shaking in the dark. Then, a 5 µL sample was taken from each well and spotted on yeast extract, bactopeptone, dextrose broth (YPD) (yeast extract 1%, bactopeptone 2%, glucose 2% and agar 2%) plates to test the growth of yeasts and lysogeny broth (LB) (yeast extract 0.5%, bactopeptone 1%, NaCl 0.5% and agar 2%) to test the growth for bacteria. Plates were left in 30 °C for 24 h, and assessed for microbial growth.
(§3) If there were no colonies after incubation with 1,4-DHPs in the last concentration of (0.001 mM), then their boundary concentration was set to 0.0001 mM or 0.1 µM.

[2] = test system: Escherichia coli; experiment: Toxicity screen, serial dilution-spot test; assay type: cell-based; conditions: gram negative; 24 h exposure in DI water, 28 °C; 0.0001 = no colonies at 0.001 mM;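 further: last dilution that did not fully inhibit growth with colonies still present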
Protocol: as §1, §2, §3

[3] = test system: Klebsiella pneumoniae; experiment: Toxicity screen, serial dilution-spot test; assay type: cell-based; conditions: gram negative; 24 h exposure in DI water, 28 °C; 0.0001 = no colonies at 0.001 mM;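 further: last dilution that did not fully inhibit growth with colonies still present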
Protocol: as §1, §2, §3

[4] = test system: Micrococcus luteus; experiment: Toxicity screen, serial dilution-spot test; assay type: cell-based; conditions: gram positive; 24 h exposure in DI water, 28 °C; 0.0001 = no colonies at 0.001 mM;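 further: last dilution that did not fully inhibit growth with colonies still present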
Protocol: as §1, §2, §3

[5] = test system: Proteus mirabilis; experiment: Toxicity screen, serial dilution-spot test; assay type: cell-based; conditions: gram negative; 24 h exposure in DI water, 28 °C; 0.0001 = no colonies at 0.001 mM;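 further: last dilution that did not fully inhibit growth with colonies still present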
Protocol: as §1, §2, §3

[6] = test system: Pseudomonas aeruginosa; experiment: Toxicity screen, serial dilution-spot test; assay type: cell-based; conditions: gram negative; 24 h exposure in DI water, 28 °C; 0.0001 = no colonies at 0.001 mM;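 further: last dilution that did not fully inhibit growth with colonies still present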
Protocol: as §1, §2, §3

[7] = test system: Saccharomyces cerevisiae, CEN.PK2 strain; experiment: Toxicity screen, serial dilution-spot test; assay type: cell-based; conditions: yeast; 24 h exposure in DI water, 28 °C; 0.0001 = no colonies at 0.001 mM;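 further: last dilution that did not fully inhibit growth with colonies still present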
Protocol: as §1, §2, §3

[8] = test system: six prokaryotic (bacteria) and one eukaryotic (yeast) microorganism species; experiment: Toxicity screen, whole panel of microorganisms; assay type: cell-based; conditions: concentrations tested 10 to 0.001 mM
Protocol: as §1, §2, §3

[9] = Self-assembling properties by dynamic light scattering (DLS); assay type: physicochemical
Protocol: Samples of compounds for dynamic light scattering (DLS) studies were prepared by thin-film hydration method in an aqueous solution at a concentration of 0.5 mg/mL for compounds 1–7, 0.25 mg/mL for compounds 8–10, and 0.1 mg/mL for compound 11. A corresponding amount of compounds was weighted in a round-bottom flask and dissolved in chloroform; then, the organic solvent was removed in vacuo, and the residue was dried in high vacuo for 1 h. An appropriate amount of deionised water was added to each flask for the preparation of stock solutions with the above-mentioned concentrations. Samples were prepared by sonication using a bath-type sonicator (Cole Parmer Ultrasonic Cleaner 8891CPX (Vernon Hills, IL, USA)). Samples were sonicated for 60 min at 50 °C.
The DLS measurements of the nanoparticles in an aqueous solution were carried out on a Zetasizer Nano ZSP (Malvern Panalytical Ltd., Malvern, UK) instrument with Malvern Instruments Ltd. Software 7.12, using the following specifications—medium: water; refractive index: 1.33; viscosity: 0.8872 cP; temperature: 25 °C; dielectric constant: 78.5; nanoparticles: liposomes; refractive index of materials: 1.60; detection angle: 173°; wavelength: 633 nm. Data were analysed using the multimodal number distribution software that was included with the instrument. The measurements were performed in triplicate in order to check their reproducibility.

[10] = Determination of critical aggregation concentration (CAC) by DLS; assay type: physicochemical; conditions: aqueous media
Protocol: The critical aggregation concentrations (CAC) of 4-(N-alkylpyridinium)-1,4-DHP derivatives were determined in aqueous media using a Zetasizer Nano S90 (Malvern Panalytical Ltd., Malvern, UK) instrument with Malvern Instruments Ltd. Software according to procedure described by Topel et al. and modified by our group. Briefly, as stock solutions of tested compounds were used, samples were prepared for self-assembling experiments. All of the subsequent samples were prepared starting from the concentrated stock solution, which was subjected to a serial two-fold dilution each time with water. The intensity values of scattered light (kcps) as a function of concentration of amphiphiles were analysed. The scattering intensities detected for amphiphile concentrations below CAC have an approximately constant value corresponding to water. The intensity starts to show a linear increase with concentration at the CAC, since the amount of nanoparticles increases in the solution. The intersection of the best-fit lines drawn through the data points is the preliminary CAC value of the compounds.

[11] = parameters: method as in PMID 9713710; conditions: cited from earlier work
[12] = test system: human erythrocytes; parameters: method as in PMID 9713710; conditions: cited from earlier work

## CCCCCCCCCCCCCCCC[n+]1cccc(C2C(C(=O)OCC)=C(C)NC(C)=C2C(=O)OCC)c1 [Compound 10]
[1]
  Boundary concentration, B. subtilis: 0.0001 mM
[2]
  Boundary concentration, E. coli: 0.01 mM
[3]
  Boundary concentration, K. pneumoniae: 0.01 mM
[4]
  Boundary concentration, M. luteus: 0.001 mM
[5]
  Boundary concentration, P. mirabilis: 0.01 mM
[6]
  Boundary concentration, P. aeruginosa: 10 mM
[7]
  Boundary concentration, S. cerevisiae: 0.0001 mM
[8]
  Effect on survival of microorganisms: toxic at various degrees
[9]; freshly prepared samples
  PDI ± SD, 1 Set: 0.10 and 0.10 ± 0.06
[9]; freshly prepared samples in water, 0.5 mg/mL (1–7), 0.25 mg/mL (8–10), 0.1 mg/mL (11)
  Zeta-Pot ± SD: +49.70 ± 7.94 mV
[9]; two weeks after the first set, samples stored at r.t.
  PDI ± SD, 2 Set: 0.25 and 0.25 ± 0.05
[9]; two weeks of storage at r.t., DLS
  Stability of nanoparticles: stable after two weeks of storage; also recorded: confirmed the stability of nanoparticles
[10]
  CAC: 28.2 µM
[11]
  Release of calcein from DPPC liposomes: remarkable release of calcein from DPPC liposomes
[12]
  Hemolysis of human erythrocytes: induced the hemolysis of human erythrocytes
